From PubChem BioAssay AID179 (DTP/NCI, 2004)
pEC50, pIC50: −log10 of the molar value. “And” between values parts separate entries of the source, which are not always exact repeats. Equal values may be shown once. The source made the active and inactive calls.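 How the source made its calls: active means compounds giving half or more protection of infected cells from virus-caused growth loss, again on retest; inactive means the rest.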

System: CEM cells HIV-1 protection, formazan growth assay
Assay: NCI AIDS Antiviral Assay
Details: for pIC50: measured here: growth of uninfected CEM cells
Procedure, shortened: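 Five concentrations of each compound were applied to infected and uninfected human CEM cells. Protection from HIV-1 was judged from growth measured with a soluble formazan assay.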

Structure (SMILES) | pEC50 | pIC50 | outcome
CC(=O)Nc1ccc(/C=C2\SC(=S)N(/C=C(/C#N)S(=O)(=O)c3ccc(C)cc3)C2=O)cc1 | < 3.70 | 4.13 | 
COC(=O)c1ncn(C2CCCCC2)c1N | < 3.70 | < 3.70 | 
COc1ccc2c(c1)c1c(n2CCN2CCCCC2)-c2ccccc2CC1 | < 3.70 | 4.88 | 
Cc1nc2ccccc2n(CC2CCCN3CCCC[C@H]23)c1=O (some centres undefined) | < 3.70 | < 3.70 | 
CC(C)(C)NCc1c(C(=O)NCCO)[n+](=O)c2ccccc2n1[O-] | < 4.12 | < 4.12 | 
COC(=O)c1cc(C)ccc1CC(Cc1ccccc1C)C(=O)OC (centres undefined) | < 3.70 | 4.43 | 
Cc1ccccc1[P+](Cc1ccccc1)(c1ccccc1)c1ccccc1C | < 3.70 | 6.11 | 
Cn1ccnc1SC(F)(F)c1nc2ccccc2o1 | < 3.70 | 3.83 | 
CC(=O)O[C@H]1C[C@@H]2OC3C=C(C)CCC3(C)[C@@]1(C)[C@@]21CO1 (some centres undefined) | < 5.70 | 6.98 | 
CC1=C(C)C(N2CCOCC2)CS(=O)(=O)O1 (centres undefined) | < 3.70 | < 3.70 | 
CC(=O)O[C@@H](c1nccn1Cc1ccccc1)[C@H]1OC(C)(C)O[C@@H]1[C@H]1COC(C)(C)O1 | < 3.70 | < 3.70 | 
CCN(CC)CCCNc1nccc2c(C)c3[nH]c4ccncc4c(=O)c3cc12 | < 3.76 | 5.97 | 
CC(=O)[C@H]1CC[C@H]2[C@@H]3CCC4=CC(=O)CC[C@]4(C)[C@H]3CC[C@]12C | < 3.70 | 4.07 and 4.04 | 
Cc1onc(-c2c(Cl)cccc2Cl)c1C(=O)SC1=NC(C)N2C(SC(=O)c3c(-c4c(Cl)cccc4Cl)noc3C)=NC(C)N12 (centres undefined) | < 4.72 | 4.74 | 
CC1(C)OC(=O)C(Cc2ccccc2)(Cc2ccccc2)C(=O)O1 |  |  | inactive
Cc1cc(-c2[nH]c(C(=O)O)cc2I)on1 | < 3.70 | < 3.70 | 
Cc1cn(C2CC(N=[N+]=[N-])C(COC(=O)CCCCCCCCCc3ccccc3)O2)c(=O)[nH]c1=O (centres undefined) | 6.89 | 3.96 | 
CSc1nc(NC2OC(COC(C)=O)C(OC(C)=O)C(OC(C)=O)C2OC(C)=O)c(N=CC=Nc2c(NC3OC(COC(C)=O)C(OC(C)=O)C(OC(C)=O)C3OC(C)=O)nc(SC)n(C)c2=O)c(=O)n1C (centres undefined) |  |  | inactive
CCOc1ccc(N=Nc2ccc3oc(=O)c(/C(C)=N/NC(=O)CC(=O)Nc4cccc(OC)c4)cc3c2)cc1 | < 4.88 | < 4.88 | 
COc1cc(CC2C(O)C3CCN2CC3)cc(OC)c1OC (centres undefined) |  |  | inactive
CC(=O)Nc1ccccc1S(=O)(=O)c1c(-c2c(C)c(Cl)c(C)c(Cl)c2C)noc1C | < 3.70 | 4.06 | 

Structure (SMILES) | pEC50 | pIC50 | outcome
Cc1sc2nc3n(c(=O)c2c1C)N=CN(c1ccccc1)C3 | < 4.00 | < 4.00 | 
CS(=O)(=O)NNS(=O)(=O)c1ccccc1 | < 4.12 | < 4.12 | 
CCOC(=O)Nc1n[nH]nc1Cl | < 3.70 | < 3.70 | 
C=C(C)CC1=C(C(=S)NCCO[Si](C)(C)C(C)(C)C)C(OCC)(OCC)C1=O | < 3.70 | 4.94 | 
CCC1C(=O)OCc2ccccc21 (centres undefined) | < 3.70 | < 3.70 | 
CC(=O)[O-].CC(=O)[O-].CC(=O)[O-].CC(=O)[O-].CO.CO.CO.[Rh+2].[Rh+2].c1ccc(-c2ccccn2)nc1 | 3.84 | 3.76 | 
CN(C)CC(=O)C1C(=O)N(C)c2ccccc21 (centres undefined) | < 3.70 | < 3.70 | 
N#C/C(=C/c1cccc2ccccc12)C(=O)c1ccccc1 | < 4.88 | < 4.88 | 
O=P1(Cc2ccccc2)c2ccccc2-c2ccccc21 | < 3.70 | 5.44 | 
COc1ccc(Cc2c3cc(O)c(=O)cc-3ccn2C)cc1 | < 4.47 | 5.19 | 
c1ccc(P2(c3ccccc3)=NSN=S=N2)cc1 | < 3.70 | 4.13 | 
CCOC(=O)c1sc2nc(SC)nc3c2c1NCN3C1CC1 | < 4.00 | < 4.00 | 
CC(=O)C1=CSC2[C@H](NC(=O)Cc3ccccc3)C(=O)N2C1C(=O)OC(c1ccccc1)c1ccccc1 (some centres undefined) | < 4.59 | 4.80 | 
CCCC[C@H]1CCN2C[C@@H](O)[C@@H](O)[C@H]2[C@@H]1O | < 3.70 | < 3.70 | 
COc1ccc(-n2cnc3c(NC(C)(C)C(=O)O)ncnc32)cc1 | < 3.70 | 3.90 | 
Cc1occc1C(=S)Nc1ccc(Cl)c(C(=O)OC(C(C)C)C(C)C)c1 | 7.04 | 4.88 | 
CCOC(=O)c1cc2c3c(c(O)c(OC)c2s1)N(C(=O)c1cc2c4c(c(O)c(OC)c2s1)N(C(C)=O)CC4)CC3 |  |  | inactive
CCCCCCCCCCCCCCCCCC(=O)OCC(COC(=O)CCCN)OC(=O)CCCN (centres undefined) |  |  | inactive
COC(=O)C(Cc1c(-c2[nH]c3ccccc3c2CC(NC(C)=O)C(=O)OC)[nH]c2ccccc12)NC(C)=O (centres undefined) | < 3.70 | < 3.70 | 
CCOC(OCC)[C@H](N)[C@@H](O)[C@@H](O)[C@H]1COC(C)(C)O1 | < 3.70 | < 3.70 | 
CCOC(=O)/C=C(/c1cc(C)[nH]c1C)N(CC)CC | < 3.70 | < 3.70 | 
